{"source": "patent US20090264447A1", "about": "“Pyrimidine compounds for combating pathogenic fungi and cancer” (BASF SE, priority 2006, published 2009)"}
{"test_system": "HeLa B cells", "assay": "Cell cycle inhibition in HeLa cells (FACS, G0/G1 to G2/M ratio)", "format": "cell-based", "settings": "read-out: IC50 (concentration at which 50% of the cells are inhibited in their cell cycle), 20 h incubation with compound", "experimental": "HeLa B cells were cultivated in DMEM (Life Technologies Cat. No. 21969-035) containing fetal calf serum (FCS, Life Technologies Cat. No. 10270-106) in 180 cm^2 containers at 37° C., 92% humidity and 7% CO2.\n5×10^4 cells per well were added into a 24-well plate. After 20 h, the compounds to be tested were added such that the final concentration was 1×10^−6, 3.3×10^−7, 1.1×10^−7, 3.7×10^−8, 1.2×10^−8 and 1×10^−9 M in a final volume of 500 μl. 6 wells contained only DMSO as control. The treated cells were incubated as described above for a further 20 h. The cells were then examined under the microscope for dead cells. The 24-well plate was then centrifuged at 1200 rpm at 20° C., an acceleration in position 7 and the brake position 5 (Eppendorf centrifuge 5804R) for 5 min.\nThe supernatant was removed and the cells were lysed with 0.5 ml of RNase buffer (10 mM sodium citrate, 0.1% Nonidet NP40, 50 μg/ml RNase, 10 μg/ml propidium iodide) per well. The plates were then incubated at room temperature in the dark for at least 30 min, and the samples were then transferred into FACS tubes. These were measured in an FACS instrument (Beckton Dickinson) with the following settings:\nInstrument settings at the FACS Calibur:\nThe ratio of cells in the G0/G1 phase to those in the G2/M phase was calculated and compared to the value for the control (DMSO).", "units": {"IC50": "nM"}}
{"smiles": "COCCCOc1cc(F)c(-c2c(Cl)nc(-n3cccn3)nc2NC(C)C(C)C)c(F)c1", "note": "(stereo not drawn) [Example 16]", "IC50": 26}
{"smiles": "CC(C)C(C)Nc1nc(C#N)nc(Cl)c1-c1c(F)cc(OCCCCl)cc1F", "note": "(stereo not drawn) [Example 38]", "IC50": 330}
{"smiles": "CNCCCOc1cc(F)c(-c2c(Cl)nc(C(=O)c3ccc(C)cc3)nc2N2CCCCCC2)c(F)c1", "note": "[Example 39]", "IC50": 580}
{"smiles": "COCCCOc1cc(F)c(-c2c(Cl)nc(C(N)=NOC)nc2NC(C)C(C)(C)C)c(F)c1", "note": "(stereo not drawn) [Example 7]", "IC50": 56}
{"smiles": "CC1CCN(c2nc(C#N)nc(Cl)c2-c2c(F)cc(OCCCN(C)C)cc2F)CC1", "note": "[Example 27]", "IC50": 220}
{"smiles": "COCCCOc1cc(F)c(-c2c(Cl)nc(-n3cncn3)nc2NC(C)C(C)C)c(F)c1", "note": "(stereo not drawn) [Example 25]", "IC50": 42}
{"smiles": "COCCCOc1cc(F)c(-c2c(Cl)nc(-n3ccnn3)nc2NC(C)C(C)C)c(F)c1", "note": "(stereo not drawn) [Example 17]", "IC50": 32}
{"smiles": "COCCCOc1cc(F)c(-c2c(Cl)nc(-n3cncn3)nc2NC(C)C(C)(C)C)c(F)c1", "note": "(stereo not drawn) [Example 24]", "IC50": 42}
{"smiles": "COCCCOc1cc(F)c(-c2c(Cl)nc(C#N)nc2NC(C)C(C)C)c(F)c1", "note": "(stereo not drawn) [Example 36]", "IC50": 59}
{"smiles": "COCCCOc1cc(F)c(-c2c(Cl)nc(-n3ccnn3)nc2NC(C)C(C)(C)C)c(F)c1", "note": "(stereo not drawn) [Example 18]", "IC50": 29}
{"smiles": "CC1CCN(c2nc(C#N)nc(Cl)c2-c2c(F)cc(OCCCOc3cc(Cl)ncn3)cc2F)CC1", "note": "[Example 32]", "IC50": 570}
{"smiles": "COCCCOc1cc(F)c(-c2c(Cl)nc(C#N)nc2N2CCC(C)CC2)c(F)c1", "note": "[Example 31]", "IC50": 120}
{"smiles": "CC1CCN(c2nc(-n3cccn3)nc(Cl)c2-c2c(F)cc(OCCCOc3cc(Cl)ncn3)cc2F)CC1", "note": "[Example 12]", "IC50": 470}
{"smiles": "COCCCOc1cc(F)c(-c2c(Cl)nc(-n3nccn3)nc2NC(C)C(C)(C)C)c(F)c1", "note": "(stereo not drawn) [Example 20]", "IC50": 27}
{"smiles": "COCCCOc1cc(F)c(-c2c(Cl)nc(-n3nccn3)nc2NC(C)C(C)C)c(F)c1", "note": "(stereo not drawn) [Example 19]", "IC50": 26}
{"smiles": "CC1CCN(c2nc(-n3cncn3)nc(Cl)c2-c2c(F)cc(OCCCN(C)C(=O)OC(C)(C)C)cc2F)CC1", "note": "[Example 22]", "IC50": 290}
{"smiles": "COCCCOc1cc(F)c(-c2c(Cl)nc(C#N)nc2NC(C)C(C)(C)C)c(F)c1", "note": "(stereo not drawn) [Example 35]", "IC50": 190}
{"smiles": "CC1CCN(c2nc(-n3cncn3)nc(Cl)c2-c2c(F)cc(OCCCOc3cc(Cl)ncn3)cc2F)CC1", "note": "[Example 23]", "IC50": 330}
{"smiles": "CON=C(N)c1nc(Cl)c(-c2c(F)cc(OCCCN(C)C)cc2F)c(N2CCC(C)CC2)n1", "note": "[Example 2]", "IC50": 27}
{"smiles": "CC(Nc1nc(C#N)nc(Cl)c1-c1c(F)cc(OCCCCl)cc1F)C(C)(C)C", "note": "(stereo not drawn) [Example 37]", "IC50": 280}
{"smiles": "COCCCOc1cc(F)c(-c2c(Cl)nc(-n3cccn3)nc2NC(C)C(C)(C)C)c(F)c1", "note": "(stereo not drawn) [Example 15]", "IC50": 32}
{"smiles": "CNCCCOc1cc(F)c(-c2c(Cl)nc(C#N)nc2N2CCCCCC2)c(F)c1", "note": "[Example 33]", "IC50": 480}
{"smiles": "CC1CCN(c2nc(-n3cccn3)nc(Cl)c2-c2c(F)cc(OCCCN(C)C(=O)OC(C)(C)C)cc2F)CC1", "note": "[Example 11]", "IC50": 570}
{"smiles": "CNCCCOc1cc(F)c(-c2c(Cl)nc(-n3cncn3)nc2N2CCC(C)CC2)c(F)c1", "note": "[Example 21]", "IC50": 18}
